Structures can show the parent of a compound that is named as a salt.
Key:
[1] = format: physicochemical; conditions: for t1/2 at 25° C.: table; for t1/2 at 25° C. / k at 25° C.: thermal decomposition in xylene
Procedure: Rates for thermal decomposition of the stable dioxetanes were monitored by the decay of chemiluminescence of aerated solutions. A cylindrical Pyrex vial equipped with magnetic stir bar was filled with 3-4 mL of the reaction solvent, sealed with a Teflon-lined screw cap and placed in the thermostatted sample block of the chemiluminescence-measuring luminometer. Temperature control was provided by an external circulating water bath. Appropriate values for the instrument gain and optical slit size were selected. […]. The vial was sealed with a Teflon-lined screw cap to prevent evaporation when high temperatures were used. Measurement of the signal was begun by opening the shutter. The chemiluminescent decay was generally recorded for at least three half-lives. Calculation of the first-order rate constant (k) from the In (Intensity) vs. time data was performed by a computer program utilizing a standard least-squares treatment. The correlation coefficient (r) was typically at least 0.999 and k varied less than 5% between replicate samples.
Activation parameters for decomposition of the dioxetanes were calculated from plots of In k vs. 1/T (Arrhenius eq.) or In k/t vs. 1/T (Eyring eq.) by a standard least-squares linear regression analysis.

[2] = test system: Alkaline Phosphatase from Human Blood Serum; test: Triggering of 2c with alkaline phosphatase from human blood serum; format: biochemical; conditions: 10^-5 M 2c, 100 μL serum, pH 10.3, 37° C.
Procedure: 1. Triggering the Chemiluminescence of 2c with Alkaline Phosphatase from Human Blood Serum. A stock solution of dioxetane 2c was prepared in dioxane/water (1:1 v/v) by photooxygenation of 1c. A sample of fresh blood was drawn from a healthy donor and the red blood cells removed by centrifugation to provide serum for the experiments. Treatment of 3 mL of a 10^-5 M solution of 2c in 0.75 M 2-amino-2-methyl-1-propanol (221) buffer (pH 10.3) at 37° C. with 100 μL of serum led to the typical intensity vs. time profile shown in FIG. 3 where the serum is injected at time zero. Under these conditions the light intensity reaches a constant level of approximately 2.3×10^4 counts/sec. The background luminescence signal from non-enzymatic hydrolysis of 2c is less than 0.05% of the enzyme-generated value.

[3] = test system: alkaline phosphatase from bovine intestinal mucosa; test: Triggering of 2c with alkaline phosphatase from bovine intestinal mucosa; format: biochemical
Excerpt: The chemiluminescence quantum yield (.PHI.CL) for the decomposition of dioxetanes is defined as the ratio of einsteins of chemiluminescence emitted to moles of dioxetane decomposed. Sufficient energy is released during the reaction from the reaction enthalpy (ΔHR) plus the Arrhenius activation energy (Ea) to populate the singlet excited state of one of the carbonyl cleavage products. Therefore, the maximum quantum yield is 1.0. Another parameter of interest is the chemiexcitation quantum yield (.PHI.CE) which is defined as the ratio of excited states formed to dioxetane decomposed.
The same procedure as those employed in the measurement of the decay kinetics was used for the determination of chemiluminescence quantum yields with the following modifications. An accurately measured aliquot of a dioxetane stock solution of known concentration was added to 3 mL of the pre-thermostatted organic solvent or aqueous buffer. The reaction was then triggered by adding the appropriate chemical reagent or enzyme. […]
Enzymatic triggering experiments such as those described above were also carried out in Immumlon™ microtitre wells from Dynatech, Inc. made of transparent polystyrene. […] The chemiluminescence was detected at the bottom of the well using a fiber optic connected to the photon-counting luminometer described previously. […]

urease = test: Triggering of 2a with urease in the presence of fluorescent micelles; format: biochemical; conditions: 10 μL of 3×10^-3 M 2a, CTAB, fluorescein surfactant 3, urea
Procedure: 5. Enzymatic Triggering of Hydroxy-Substituted Dioxetane 2a with Urease in the Presence of Fluorescent Micelles. A solution was prepared using 160 mg of CTAB and 12.4 mg of fluorescein surfactant 3 in 200 mL of distilled water. A urea solution was made by dissolving 200 mg of urea in 100 mL of distilled water with EDTA added to give a final concentration of 0.4 mM. The substrate solution for the urease experiments was obtained by mixing 10mL of each stock solution.
Experiments were carried out with urease (Sigma) by incubation at room temperature for periods of 0.5 to 2 hours. […] The intensity of the luminescence provided a measure of the concentration of urease.

[4] = Base-triggered chemiluminescence in DMSO or water; conditions: 10^-4 M, DMSO, excess tetra-n-butylammonium hydroxide
firefly luciferase = firefly luciferase system; cited from earlier work
[5] = test system: alkaline phosphatase from bovine intestinal mucosa; test: Triggering of xanthenone phosphate dioxetane with alkaline phosphatase from bovine intestinal mucosa; format: biochemical; conditions: 4.2×10^-6 M dioxetane, 1.8 μg/mL protein, pH 10.3, 37° C.
Procedure: Triggering experiments were conducted using alkaline phosphatase from bovine intestinal mucosa [suspension of 5.3 mg of protein (1100 units/mg protein) per mL in 3.2 M (NH4)2 SO4 ] and the phosphate-protected dioxetane at pH 10.3 in 0.75 M 2-amino-2-methyl- 1-propanol buffer. […]. The rate of decay of the emission is a function of enzyme concentration while the total light emission is independent of the enzyme concentration because of turnover of the enzyme.

SMILES: COC1(c2cccc(O[Si](C)(C)C(C)(C)C)c2)OOC12C1CC3CC(C1)CC2C3 (stereo not drawn)
- half-life at 25° C. ([1]; General Description dioxetanes): 3.8 years
- decomposition on standing ([1]; o-xylene, laboratory bench, several months): no detectable decomposition

SMILES: COC1(c2cccc(OP(=O)(O)O)c2)OOC12C1CC3CC(C1)CC2C3 (stereo not drawn) [dioxetane 2c, 4-Methoxy-4-(3-phosphatephenyl)spiro[1,2-dioxetane-3,2'-adamantane], disodium salt]
- t1/2 at 25° C. [1]: 19 yrs
- k at 25° C. [1]: 1.19e-09 s⁻¹
- light intensity at plateau [2]: approximately 2.3×10^4 counts/sec
- detection of alkaline phosphatase ([3]; 2c, CTAB and 3 in 200 μL 221 buffer, assuming enzyme purity of 10%): less than 0.2 attomoles
- period of chemiluminescence ([3]; with CTAB and 3, 12 pg/mL protein): 45 min

SMILES: COC1(c2cccc(O)c2)OOC12C1CC3CC(C1)CC2C3 (stereo not drawn) [dioxetane 2a, 4-(3-Hydroxyphenyl)-4-methoxyspiro[1,2-dioxetane-3,2'-adamantane]]
- t1/2 at 25° C. [1]: 4.1 yrs
- k at 25° C. [1]: 5.38e-09 s⁻¹
- chemiluminescence after incubation with urease (urease): produced chemiluminescence
- duration of chemiluminescence decay [4]: several minutes

SMILES: COC1(c2cccc(OC(C)=O)c2)OOC12C1CC3CC(C1)CC2C3 (stereo not drawn) [dioxetane 2b]
- t1/2 at 25° C. [1]: 13 yrs
- k at 25° C. [1]: 1.73e-09 s⁻¹

SMILES: CCCCCCCCCCCCCCCC[N+](C)(C)C.[Br-] [CTAB, cetyltrimethylammonium bromide]
- inhibition of the catalytic activity of the luciferase (firefly luciferase): complete inhibition

SMILES: O=P(O)(O)Oc1ccc2c(c1)Oc1ccccc1C21OOC12C1CC3CC(C1)CC2C3 (stereo not drawn)
- duration of chemiluminescence decay [5]: 3 min

From US5004565A, “Method and compositions providing enhanced chemiluminescence from 1,2-dioxetanes” (priority 1988, dated 1991)
